Results as given in patent publication US20210177879A1, “VITAMIN D RECEPTOR AGONIST” (Guanghzou University of Chinese Medicine, priority 2018, published 2021).

What was measured:
[1] = test system: AOM/DSS colon cancer model; assay: AOM/DSS colon cancer model, Experiment 2 (colon length, thickness, tumors); format: in vivo, Balb/c mice; settings: 2 mg/kg once a day
Procedure: (§1) Experimental method: 70 Balb/c mice of 6-8 weeks were purchased from the Experimental Animal Center in Guangzhou University of Chinese Medicine, weighed about 18-22 g, and subjected to adaptive feeding for 10 days. Modeling was divided into three stages. In the first stage, except for the normal group of animals being given saline injection, each of the other animals were intraperitoneally injected with a carcinogen AOM (10 mg/kg), and given free access to 2% DSS water from the next day for 7 days, and then given access to replaced regular drinking water for 14 days. In the second stage, the animals were given free access to 2% DSS water for 10 days, and then given access to replaced regular drinking water for 14 days. In the third stage, the animals were given free access to 2% DSS water for 10 days, and then given access to replaced regular drinking water for 11 days. The normal group was given access to regular drinking water throughout the experiment. The diet, water drinking and body weights of the animals were recorded daily and DAI scores were made, and the animals were killed and harvested at the 10th week. In this experiment, the animals were divided into groups and administrated on the first day of a modeling period of the second stage, where a total of 7 groups were set, each group including 10 animals. The first group was a blank control group (control) that was given access to drinking water by gavage; the second group was a model group (model), in which a total of 10 animals were given access to drinking water by gavage; the third group was a vitamin D3 positive administration control group (VD3, 0.2 mg/kg); and the fourth to seventh groups were given monotropein, desacetyl asperulosidic acid, asperuloside, and asperulosidic acid (groups labeled as: Mo, As, Aa, Da), respectively at a given dose of 2 mg/kg. Dosing was conducted once a day until the end of the experiment. At the end of the experiment, the animals were anesthetized and harvested, and the colon tissue was taken, measured with a ruler for the length, and measured with a vernier caliper for the thickness. The effects of monotropein, desacetyl asperulosidic acid, asperuloside and asperulosidic acid on expression of the vitamin D receptor were detected.

[2] = test system: transplanted tumor of MB-231 pancreatic cancer cells; assay: Transplanted tumor of MB-231 pancreatic cancer cells in nude mice; format: in vivo; settings: 2 mg/kg in combination with 5-fluorouracil at half dose (20 mg/kg), once a day; effect comparable to 5-fluorouracil alone 40 mg/kg
Procedure: The SMB-231 pancreatic cancer cells were thawed, and cultured in a changed medium after 24 hours. Medium preparation method: 6% serum, 1% of a bispecific antibody+a 1640 basal medium. After grown to confluent, the cells were digested and subcultured to expand the number of cells. When reached the required amount, the cells were digested by trypsin, centrifuged, and resuspended in PBS to prepare a cell suspension of 1×10^8 cells/ml. A part of the cell suspension was added with the monotropein, desacetyl asperulosidic acid, asperuloside, and asperulosidic acid respectively, and the inhibition rate (%) of tumor cell proliferation by each of these different compounds was examined.
Male adult nude mice, which had the body weights of 20-24 g, were purchased from Guangdong Medical Laboratory Animal Center. After 7 days of adaptive feeding of the animals, except for the blank group, the remaining animals were injected with 0.2 ml of a SMB-231 pancreatic cancer cell suspension in PBS at ventrodorsal and scapula sites of them, the response conditions of the animals were observed, and the body weights of the animals were determined once a week. After 2 weeks of observation, the animals were grouped into the following groups according to tumor size: a blank group; a model group; a 5-fluorouracil control group (5-Full, 40 mg/kg); monotropein+5-fluorouracil (2 mg/kg monotropein+20 mg/kg 5-fluorouracil), desacetyl asperulosidic acid+5-fluorouracil (2 mg/kg desacetyl asperulosidic acid+20 mg/kg 5-fluorouracil), asperuloside+5-fluorouracil (2 mg/kg asperuloside+20 mg/kg 5-fluorouracil), asperulosidic acid+5-fluorouracil (2 mg/kg asperulosidic acid+20 mg/kg 5-fluorouracil), these groups being labeled as: Mo, As, Aa, Da. Each group included 8 animals; and administration was conducted once a day.
The status, death conditions, and eating and drinking conditions of the animals were observed daily. The body weights of the animals were determined once a week and the tumor size of the animals was determined every 4 days. The tumor volume of the animals was determined by using a vernier caliper. After 1 month of administration, the animals were sacrificed after blood was sampled from the orbit thereof, and the tumor was separated and weighed.

[3] = test system: vitamin D receptor; assay: Expression of vitamin D receptor in colon tissues, Experiment 2 (Western blot, immunohistochemistry); format: in vivo, Balb/c mice; settings: compared with the blank group; VD3 0.2 mg/kg, four compounds 2 mg/kg
Procedure: as §1

[4] = test system: intestinal permeability; assay: Determination of intestinal permeability in serum with FITC-dextran; format: in vivo, Balb/c mice; settings: after third stage of modeling; monotropein high and low doses, 5-ASA 100 mg/kg
Procedure: Experimental method: 90 Balb/c mice of 6-8 weeks were purchased from the Experimental Animal Center in Guangzhou University of Chinese Medicine, weighed about 18-22 g, and subjected to adaptive feeding for 10 days. Modeling was divided into three stages. In the first stage, except for the normal group of animals being given saline injection, each of the other animals were intraperitoneally injected with a carcinogen AOM (10 mg/kg), and given free access to 2% DSS water from the next day for 7 days, and then given access to replaced regular drinking water for 14 days. In the second stage, the animals were given free access to 2% DSS water for 10 days, and then given access to replaced regular drinking water for 14 days. In the third stage, the animals were given free access to 2% DSS water for 10 days, and then given access to replaced regular drinking water for 11 days. […] The diet, water drinking and body weights of the animals were recorded daily and DAI scores were made, and the animals were killed and harvested at the 10th week. […] 25 μl of serum was taken and added with 100 μl PBS, and determined on a microplate reader for its fluorescence intensity, where the wavelength of the exciting light was 480 nm, and the wavelength of the emitting light was 520 nm. A standard curve was made and the sample concentration was calculated.

With O=C(O)C1=CO[C@@H](O[C@@H]2O[C@H](CO)[C@@H](O)[C@H](O)[C@H]2O)[C@H]2[C@@H]1C=C[C@]2(O)CO [monotropein] the “incidence and development of colorectal cancers” value [1] was “inhibiting the incidence and development of colorectal cancers”, the “tumor proliferation in SMB-231 tumor-bearing mice” value [2] was “significantly inhibit tumor proliferation” and the “expression of the vitamin D receptor in the colon tissues (Western blot and immunohistochemistry)” value [3] was “promote expression enhancement”. The “intestinal permeability (FITC-dextran in serum) vs model group” value [4] was “significant differences”.
